Measurements: ChEMBL document CHEMBL3885881, “DrugMatrix”

Species: Rattus norvegicus
Assay: DrugMatrix - Regimen: Daily Repeat
Format: toxicity, organism-based, Sprague-Dawley
Design: regimen Daily Repeat, gender Male, age 6-8 weeks
Conditions: in vivo, iv, vehicle 100 % SALINE; for ABSOLUTE BASOPHIL / ABSOLUTE EOSINOPHIL / ABSOLUTE LYMPHOCYTE / ABSOLUTE MONOCYTE / ABSOLUTE SEGMENTED NEUTROPHIL / BASOPHIL / EOSINOPHIL / ERYTHROCYTE COUNT / HEMATOCRIT / HEMOGLOBIN / LEUKOCYTE COUNT / LYMPHOCYTE / MEAN CORPUSCULAR HEMOGLOBIN / MEAN CORPUSCULAR HEMOGLOBIN CONCENTRATION / MEAN CORPUSCULAR VOLUME / MONOCYTE / NEUTROPHIL / NUCLEATED RED BLOOD CELLS / PLATELET COUNT: tissue Blood; for ALANINE AMINOTRANSFERASE / ALBUMIN / ALKALINE PHOSPHATASE / ASPARTATE AMINOTRANSFERASE / BLOOD UREA NITROGEN / CARBON DIOXIDE / CHLORIDE / CHOLESTEROL / CREATINE PHOSPHOKINASE / CREATININE / GLUCOSE / LACTATE DEHYDROGENASE / LIPASE / PHOSPHORUS / POTASSIUM / SODIUM / TOTAL BILIRUBIN / TOTAL PROTEIN / URIC ACID: tissue Plasma
[1] = 0.01 mg/kg, 72 h, dose level Low, time 3 day
[2] = 0.01 mg/kg, 120 h, dose level Low, time 5 day
[3] = 15 mg/kg, 72 h, dose level High, time 3 day

## CC(C)NCC(O)c1ccc(O)c(O)c1 (centres undefined) [ISOPROTERENOL]
[1]
  ABSOLUTE BASOPHIL: 0 CELLS/uL
  ABSOLUTE EOSINOPHIL: 134.67 CELLS/uL
  ABSOLUTE LYMPHOCYTE: 13411.33 CELLS/uL
  ABSOLUTE MONOCYTE: 299.67 CELLS/uL
  ABSOLUTE SEGMENTED NEUTROPHIL: 1854.33 CELLS/uL
  BASOPHIL: 0%
  EOSINOPHIL: 0.67%
  ERYTHROCYTE COUNT: 5.6 x10E6/uL
  HEMATOCRIT: 34.43%
  HEMOGLOBIN: 12.9 G/DL
  LEUKOCYTE COUNT: 15.7 x10E3/uL
  LYMPHOCYTE: 85.33%
  MEAN CORPUSCULAR HEMOGLOBIN: 23.03 pg
  MEAN CORPUSCULAR HEMOGLOBIN CONCENTRATION: 37.47 G/DL
  MEAN CORPUSCULAR VOLUME: 61.43 fL
  MONOCYTE: 2%
  NEUTROPHIL: 12%
  NUCLEATED RED BLOOD CELLS: 0 /100WBC
  PLATELET COUNT: 1265.33 x10E3/uL
  ALANINE AMINOTRANSFERASE: 39.67 u/L
  ALBUMIN: 4.4 G/DL
  ALKALINE PHOSPHATASE: 368 u/L
  ASPARTATE AMINOTRANSFERASE: 75 u/L
  BLOOD UREA NITROGEN: 14.33 mg/dL
  CARBON DIOXIDE: 25 mmol/L
  CHLORIDE: 104 MEQ/L
  CHOLESTEROL: 69.67 mg/dL
  CREATINE PHOSPHOKINASE: 196.33 u/L
  CREATININE: 0.24 mg/dL
  GLUCOSE: 149.67 mg/dL
  LACTATE DEHYDROGENASE: 289 u/L
  LIPASE: 9.67 u/L
  PHOSPHORUS: 13.47 mg/dL
  POTASSIUM: 6.71 MEQ/L
  SODIUM: 146.07 MEQ/L
  TOTAL BILIRUBIN: 0.2 mg/dL
  TOTAL PROTEIN: 5.97 G/DL
  URIC ACID: 2.17 mg/dL
[2]
  ABSOLUTE BASOPHIL: 0 CELLS/uL
  ABSOLUTE EOSINOPHIL: 0 CELLS/uL
  ABSOLUTE LYMPHOCYTE: 15742 CELLS/uL
  ABSOLUTE MONOCYTE: 224 CELLS/uL
  ABSOLUTE SEGMENTED NEUTROPHIL: 800.67 CELLS/uL
  BASOPHIL: 0%
  EOSINOPHIL: 0%
  ERYTHROCYTE COUNT: 5.33 x10E6/uL
  HEMATOCRIT: 32.33%
  HEMOGLOBIN: 12.57 G/DL
  LEUKOCYTE COUNT: 16.77 x10E3/uL
  LYMPHOCYTE: 94%
  MEAN CORPUSCULAR HEMOGLOBIN: 23.6 pg
  MEAN CORPUSCULAR HEMOGLOBIN CONCENTRATION: 38.9 G/DL
  MEAN CORPUSCULAR VOLUME: 60.67 fL
  MONOCYTE: 1.33%
  NEUTROPHIL: 4.67%
  NUCLEATED RED BLOOD CELLS: 0 /100WBC
  PLATELET COUNT: 1122.67 x10E3/uL
  ALANINE AMINOTRANSFERASE: 81 u/L
  ALBUMIN: 3.6 G/DL
  ALKALINE PHOSPHATASE: 310 u/L
  ASPARTATE AMINOTRANSFERASE: 65 u/L
  BLOOD UREA NITROGEN: 16.67 mg/dL
  CARBON DIOXIDE: 24 mmol/L
  CHLORIDE: 107.5 MEQ/L
  CHOLESTEROL: 61.33 mg/dL
  CREATINE PHOSPHOKINASE: 282.67 u/L
  CREATININE: 0.3 mg/dL
  GLUCOSE: 161.67 mg/dL
  LACTATE DEHYDROGENASE: 140 u/L
  LIPASE: 11 u/L
  PHOSPHORUS: 11.23 mg/dL
  POTASSIUM: 6.08 MEQ/L
  SODIUM: 146.4 MEQ/L
  TOTAL BILIRUBIN: 0.13 mg/dL
  TOTAL PROTEIN: 5.73 G/DL
  URIC ACID: 1.3 mg/dL
[3]
  ABSOLUTE BASOPHIL: 0 CELLS/uL
  ABSOLUTE EOSINOPHIL: 47.67 CELLS/uL
  ABSOLUTE LYMPHOCYTE: 15188.67 CELLS/uL
  ABSOLUTE MONOCYTE: 404 CELLS/uL
  ABSOLUTE SEGMENTED NEUTROPHIL: 1159.67 CELLS/uL
  BASOPHIL: 0%
  EOSINOPHIL: 0.33%
  ERYTHROCYTE COUNT: 5.66 x10E6/uL
  HEMATOCRIT: 36.93%
  HEMOGLOBIN: 13.6 G/DL
  LEUKOCYTE COUNT: 16.8 x10E3/uL
  LYMPHOCYTE: 90.67%
  MEAN CORPUSCULAR HEMOGLOBIN: 24 pg
  MEAN CORPUSCULAR HEMOGLOBIN CONCENTRATION: 36.83 G/DL
  MEAN CORPUSCULAR VOLUME: 65.2 fL
  MONOCYTE: 2.33%
  NEUTROPHIL: 6.67%
  NUCLEATED RED BLOOD CELLS: 0 /100WBC
  PLATELET COUNT: 1372 x10E3/uL
  ALANINE AMINOTRANSFERASE: 39 u/L
  ALBUMIN: 4.1 G/DL
  ALKALINE PHOSPHATASE: 370.67 u/L
  ASPARTATE AMINOTRANSFERASE: 73.67 u/L
  BLOOD UREA NITROGEN: 19.33 mg/dL
  CARBON DIOXIDE: 24.67 mmol/L
  CHLORIDE: 106 MEQ/L
  CHOLESTEROL: 80.33 mg/dL
  CREATINE PHOSPHOKINASE: 282.67 u/L
  CREATININE: 0.17 mg/dL
  GLUCOSE: 151.33 mg/dL
  LACTATE DEHYDROGENASE: 128.33 u/L
  LIPASE: 9 u/L
  PHOSPHORUS: 10.87 mg/dL
